Results: patent US20260262643A1, “HERBICIDAL BENZOXAZINES” (FMC CORPORATION, priority 2022, published 2026)

What was measured:
ragweed [1] = test: Test C preemergence; type: in vivo, Ambrosia artemisiifolia; details: 0 to 100 scale (0 no effect, 100 complete control); for Plant response rating, Ragweed: Preemergence, 500 g ai/ha, visual rating after 10 days; for Ragweed plant response rating: Test C, preemergence, 125 g ai/ha
Summary of the method: (§1)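 Visual injury ratings on a 0–100 scale (100 = complete control) were made against untreated controls 10 days after treatment in the greenhouse. Compounds, formulated with surfactant in non-phytotoxic solvent, were sprayed on soil preemergence or onto one- to two-leaf plants 2–10 cm tall postemergence.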

sedge, umbrella = test: Test D flooded paddy test; type: in vivo, Cyperus difformis; details: 250 g ai/ha, applied to paddy water, visual rating after 13 to 14 days, scale 0 to 100 (0 no effect, 100 complete control)
Procedure: (§2) Plant species in the flooded paddy test selected from barnyardgrass (Echinochloa crus-galli), ducksalad (Heteranthera limosa), rice (Oryza sativa), and sedge, umbrella (small-flower umbrella sedge, Cyperus difformis) were grown to the 2-leaf stage for testing. At time of treatment, test pots were flooded to 3 cm above the soil surface, treated by application of test compounds directly to the paddy water, and then maintained at that water depth for the duration of the test. Treated plants and controls were maintained in a greenhouse for 13 to 14 days, after which time all species were compared to controls and visually evaluated. Plant response ratings, summarized in Table D, are based on a scale of 0 to 100 where 0 is no effect and 100 is complete control. A dash (-) response means no test result.

galium = test: Test C postemergence; type: in vivo, Galium aparine; details: 10 days
Summary of the method: as §1

kochia [2] = test: Test C preemergence; type: in vivo, Bassia scoparia; details: 0 to 100 scale (0 no effect, 100 complete control); for Plant response rating, Kochia: Preemergence, 500 g ai/ha, visual rating after 10 days; for Kochia plant response rating: Test C, preemergence, 125 g ai/ha
Summary of the method: as §1

ryegrass, Italian [3] = test: Test C postemergence; type: in vivo, Lolium multiflorum; details: 10 days
Summary of the method: as §1

soybean [4] = test: Test C preemergence; type: in vivo, Glycine max; details: 0 to 100 scale (0 no effect, 100 complete control); for Plant response rating, Soybean: Preemergence, 500 g ai/ha, visual rating after 10 days; for Soybean plant response rating: Test C, preemergence, 125 g ai/ha
Summary of the method: as §1

oat, wild [5] = test: Test C postemergence; type: in vivo, Avena fatua; details: 10 days
Summary of the method: as §1

ducksalad = test: Test D flooded paddy test; type: in vivo, Heteranthera limosa; details: 250 g ai/ha, applied to paddy water, visual rating after 13 to 14 days, scale 0 to 100 (0 no effect, 100 complete control)
Procedure: as §2

pigweed, palmer [6] = test: Test C postemergence; type: in vivo, Amaranthus palmeri; details: 10 days
Summary of the method: as §1

blackgrass [7] = test: Test C postemergence; type: in vivo, Alopecurus myosuroides; details: 10 days
Summary of the method: as §1

ryegrass, Italian [8] = test: Test C preemergence; type: in vivo, Lolium multiflorum; details: 0 to 100 scale (0 no effect, 100 complete control); for Plant response rating, Ryegrass, Italian: Preemergence, 500 g ai/ha, visual rating after 10 days; for Ryegrass, Italian plant response rating: Test C, preemergence, 125 g ai/ha
Summary of the method: as §1

barnyardgrass [9] = test: Test C preemergence; type: in vivo, Echinochloa crusgalli; details: 0 to 100 scale (0 no effect, 100 complete control); for Plant response rating, Barnyardgrass: Preemergence, 500 g ai/ha, visual rating after 10 days; for Barnyardgrass plant response rating: Test C, preemergence, 125 g ai/ha
Summary of the method: as §1

corn [10] = test: Test C preemergence; type: in vivo, Zea mays; details: 0 to 100 scale (0 no effect, 100 complete control); for Plant response rating, Corn: Preemergence, 500 g ai/ha, visual rating after 10 days; for Corn plant response rating: Test C, preemergence, 125 g ai/ha
Summary of the method: as §1

soybean [11] = test: Test C postemergence; type: in vivo, Glycine max; details: 10 days
Summary of the method: as §1

wheat [12] = test: Test C postemergence; type: in vivo, Triticum aestivum; details: 10 days
Summary of the method: as §1

kochia [13] = test: Test C postemergence; type: in vivo, Bassia scoparia; details: 10 days
Summary of the method: as §1

green foxtail = test: Test C preemergence; type: in vivo, Setaria viridis; details: 0 to 100 scale (0 no effect, 100 complete control); for Plant response rating, Foxtail, Green: Preemergence, 500 g ai/ha, visual rating after 10 days; for Foxtail, Green plant response rating: Test C, preemergence, 125 g ai/ha
Summary of the method: as §1

wheat [14] = test: Test C preemergence; type: in vivo, Triticum aestivum; details: 0 to 100 scale (0 no effect, 100 complete control); for Plant response rating, Wheat: Preemergence, 500 g ai/ha, visual rating after 10 days; for Wheat plant response rating: Test C, preemergence, 125 g ai/ha
Summary of the method: as §1

corn [15] = test: Test C postemergence; type: in vivo, Zea mays; details: 10 days
Summary of the method: as §1

barnyardgrass [16] = test: Test D flooded paddy test; type: in vivo, Echinochloa crus-galli; details: 250 g ai/ha, applied to paddy water, visual rating after 13 to 14 days, scale 0 to 100 (0 no effect, 100 complete control)
Procedure: as §2

blackgrass [17] = test: Test C preemergence; type: in vivo, Alopecurus myosuroides; details: 0 to 100 scale (0 no effect, 100 complete control); for Plant response rating, Blackgrass: Preemergence, 500 g ai/ha, visual rating after 10 days; for Blackgrass plant response rating: Test C, preemergence, 125 g ai/ha
Summary of the method: as §1

rice = test: Test D flooded paddy test; type: in vivo, Oryza sativa; details: 250 g ai/ha, applied to paddy water, visual rating after 13 to 14 days, scale 0 to 100 (0 no effect, 100 complete control)
Procedure: as §2

horseweed = test: Test C postemergence; type: in vivo, Erigeron canadensis; details: 10 days
Summary of the method: as §1

pigweed, palmer [18] = test: Test C preemergence; type: in vivo, Amaranthus palmeri; details: 0 to 100 scale (0 no effect, 100 complete control); for Plant response rating, Pigweed, Palmer: Preemergence, 500 g ai/ha, visual rating after 10 days; for Pigweed, Palmer plant response rating: Test C, preemergence, 125 g ai/ha
Summary of the method: as §1

oat, wild [19] = test: Test C preemergence; type: in vivo, Avena fatua; details: 0 to 100 scale (0 no effect, 100 complete control); for Plant response rating, Oat, Wild: Preemergence, 500 g ai/ha, visual rating after 10 days; for Oat, Wild plant response rating: Test C, preemergence, 125 g ai/ha
Summary of the method: as §1

barnyardgrass [20] = test: Test C postemergence; type: in vivo, Echinochloa crusgalli; details: 10 days
Summary of the method: as §1

ragweed [21] = test: Test C postemergence; type: in vivo, Ambrosia artemisiifolia; details: 10 days
Summary of the method: as §1

[22] = 125 g ai/ha, postemergence, 0 to 100 scale, 0 no effect, 100 complete control
[23] = Postemergence, 500 g ai/ha, visual 0 to 100 scale (0 no effect, 100 complete control)

COc1ccc(-n2cnc(C(C)(C)O)n2)cc1C(=O)N1C[C@H](C)Oc2c(Cl)cccc21 [Compound 254]
Plant response rating, Ragweed (ragweed [1]): 90
Ragweed plant response rating (ragweed [1]): 80
Plant response rating, Sedge, Umbrella (Flood) (sedge, umbrella): 98
Plant response rating, Galium (galium; [22]): 100
Plant response rating, Galium (galium; [23]): 100
Plant response rating, Kochia (kochia [2]): 90
Kochia plant response rating (kochia [2]): 90
Plant response rating, Ryegrass, Italian (ryegrass, Italian [3]; [22]): 70
Plant response rating, Ryegrass, Italian (ryegrass, Italian [3]; [23]): 80
Plant response rating, Soybean (soybean [4]): 100
Soybean plant response rating (soybean [4]): 100
Plant response rating, Oat, Wild (oat, wild [5]; [22]): 80
Plant response rating, Oat, Wild (oat, wild [5]; [23]): 90
Plant response rating, Ducksalad (Flood) (ducksalad): 98
Plant response rating, Pigweed, Palmer (pigweed, palmer [6]; [22]): 90
Plant response rating, Pigweed, Palmer (pigweed, palmer [6]; [23]): 100
Plant response rating, Blackgrass (blackgrass [7]; [22]): 80
Plant response rating, Blackgrass (blackgrass [7]; [23]): 90
Plant response rating, Ryegrass, Italian (ryegrass, Italian [8]): 90
Ryegrass, Italian plant response rating (ryegrass, Italian [8]): 90
Plant response rating, Barnyardgrass (barnyardgrass [9]): 100
Barnyardgrass plant response rating (barnyardgrass [9]): 70
Plant response rating, Corn (corn [10]): 50
Corn plant response rating (corn [10]): 50
Plant response rating, Soybean (soybean [11]; [22]): 100
Plant response rating, Soybean (soybean [11]; [23]): 100
Plant response rating, Wheat (wheat [12]; [22]): 50
Plant response rating, Wheat (wheat [12]; [23]): 80
Plant response rating, Kochia (kochia [13]; [22]): 80
Plant response rating, Kochia (kochia [13]; [23]): 90
Plant response rating, Foxtail, Green (green foxtail): 100
Foxtail, Green plant response rating (green foxtail): 100
Plant response rating, Wheat (wheat [14]): 90
Wheat plant response rating (wheat [14]): 70
Plant response rating, Corn (corn [15]; [22]): 80
Plant response rating, Corn (corn [15]; [23]): 90
Plant response rating, Barnyardgrass (Flood) (barnyardgrass [16]): 25
Plant response rating, Blackgrass (blackgrass [17]): 80
Blackgrass plant response rating (blackgrass [17]): 40
Plant response rating, Rice (Flood) (rice): 20
Plant response rating, Horseweed (horseweed; [22]): 30
Plant response rating, Horseweed (horseweed; [23]): 20
Plant response rating, Pigweed, Palmer (pigweed, palmer [18]): 100
Pigweed, Palmer plant response rating (pigweed, palmer [18]): 100
Plant response rating, Oat, Wild (oat, wild [19]): 90
Oat, Wild plant response rating (oat, wild [19]): 90
Plant response rating, Barnyardgrass (barnyardgrass [20]; [22]): 50
Plant response rating, Barnyardgrass (barnyardgrass [20]; [23]): 80
Plant response rating, Ragweed (ragweed [21]; [22]): 90
Plant response rating, Ragweed (ragweed [21]; [23]): 100

COC[C@H]1CN(C(=O)c2cc(-n3cncn3)ccc2OC)c2cccc(Cl)c2O1 [Compound 234]
Plant response rating, Ragweed (ragweed [1]): 50
Ragweed plant response rating (ragweed [1]): 50
Plant response rating, Sedge, Umbrella (Flood) (sedge, umbrella): 100
Plant response rating, Galium (galium; [22]): 100
Plant response rating, Galium (galium; [23]): 100
Plant response rating, Kochia (kochia [2]): 60
Kochia plant response rating (kochia [2]): 30
Plant response rating, Ryegrass, Italian (ryegrass, Italian [3]; [22]): 90
Plant response rating, Ryegrass, Italian (ryegrass, Italian [3]; [23]): 90
Plant response rating, Soybean (soybean [4]): 100
Soybean plant response rating (soybean [4]): 90
Plant response rating, Oat, Wild (oat, wild [5]; [22]): 50
Plant response rating, Oat, Wild (oat, wild [5]; [23]): 80
Plant response rating, Ducksalad (Flood) (ducksalad): 100
Plant response rating, Pigweed, Palmer (pigweed, palmer [6]; [22]): 30
Plant response rating, Pigweed, Palmer (pigweed, palmer [6]; [23]): 70
Plant response rating, Blackgrass (blackgrass [7]; [22]): 80
Plant response rating, Blackgrass (blackgrass [7]; [23]): 90
Plant response rating, Ryegrass, Italian (ryegrass, Italian [8]): 90
Ryegrass, Italian plant response rating (ryegrass, Italian [8]): 80
Plant response rating, Barnyardgrass (barnyardgrass [9]): 100
Barnyardgrass plant response rating (barnyardgrass [9]): 90
Plant response rating, Corn (corn [10]): 10
Corn plant response rating (corn [10]): 10
Plant response rating, Soybean (soybean [11]; [22]): 100
Plant response rating, Soybean (soybean [11]; [23]): 100
Plant response rating, Wheat (wheat [12]; [22]): 50
Plant response rating, Wheat (wheat [12]; [23]): 80
Plant response rating, Kochia (kochia [13]; [22]): 60
Plant response rating, Kochia (kochia [13]; [23]): 80
Plant response rating, Foxtail, Green (green foxtail): 100
Foxtail, Green plant response rating (green foxtail): 100
Plant response rating, Wheat (wheat [14]): 80
Wheat plant response rating (wheat [14]): 40
Plant response rating, Corn (corn [15]; [22]): 70
Plant response rating, Corn (corn [15]; [23]): 90
Plant response rating, Barnyardgrass (Flood) (barnyardgrass [16]): 75
Plant response rating, Blackgrass (blackgrass [17]): 80
Blackgrass plant response rating (blackgrass [17]): 70
Plant response rating, Rice (Flood) (rice): 0
Plant response rating, Horseweed (horseweed; [22]): 20
Plant response rating, Horseweed (horseweed; [23]): 20
Plant response rating, Pigweed, Palmer (pigweed, palmer [18]): 90
Pigweed, Palmer plant response rating (pigweed, palmer [18]): 60
Plant response rating, Oat, Wild (oat, wild [19]): 70
Oat, Wild plant response rating (oat, wild [19]): 50
Plant response rating, Barnyardgrass (barnyardgrass [20]; [22]): 60
Plant response rating, Barnyardgrass (barnyardgrass [20]; [23]): 100
Plant response rating, Ragweed (ragweed [21]; [22]): 50
Plant response rating, Ragweed (ragweed [21]; [23]): 70
